# pEC50, pIC50: −log10 of the molar value. “And” between values parts separate entries of the source, which are not always exact repeats. Equal values may be shown once.
# Columns and labels:
# [1] = tested on: Tumor cell line; assay: In vitro for median growth inhibitory concentration against renal cancer cell lines; type: functional; details: Homo sapiens
# [2] = tested on: Tumor cell line; assay: In vitro for median growth inhibitory concentration against colon cancer cell lines; type: functional; details: Homo sapiens
# [3] = tested on: Panel CNS (Carcinoma cell lines); assay: In vitro growth inhibitory concentration against CNS cancer cell lines; type: functional; details: Homo sapiens
# [4] = tested on: Tumor cell line; assay: In vitro for median growth inhibitory concentration against CNS cancer cell lines; type: functional; details: Homo sapiens
# [5] = tested on: Tumor cell line; assay: In vitro for median growth inhibitory conc. against leukemia (compounds full panel MG-MID/leukemia subpanel MG-MID); type: functional; details: Homo sapiens
# [6] = tested on: Tumor cell line; assay: In vitro for median growth inhibitory concentration against melanoma cell lines; type: functional; details: Homo sapiens
# [7] = tested on: Tumor cell line; assay: In vitro for median growth inhibitory concentration against prostate cancer cell lines; type: functional; details: Homo sapiens
# [8] = tested on: MT4; assay: In vitro inhibitory activity against uninfected T4 cells; type: functional, cell-based; details: Homo sapiens
# [9] = tested on: Ovarian cancer cell line; assay: In vitro growth inhibitory concentration against ovarian cancer cell lines; type: functional; details: Homo sapiens
# [10] = tested on: Human immunodeficiency virus 1; assay: In vitro effective concentration against HIV-1 cytopathic effect in T4 cells; Inactive; type: functional, organism-based
# [11] = In vitro growth inhibitory concentration against colon cancer tumor cell lines; type: functional; details: Homo sapiens
# [12] = tested on: Tumor cell line; assay: In vitro for median growth inhibitory concentration against non small lung cancer cell lines; type: functional; details: Homo sapiens
# [13] = tested on: Breast cancer cell line; assay: In vitro growth inhibitory concentration against breast cancer cell lines; type: functional; details: Homo sapiens
# [14] = Full panel mean-graph midpoint (MG-MID).
# [15] = tested on: Tumor cell line; assay: In vitro for growth inhibitory concentration against non small lung cancer cell lines; type: functional; details: Homo sapiens
# [16] = tested on: Panel prostate (Carcinoma cell lines); assay: In vitro growth inhibitory concentration against prostate cancer cell lines; type: functional; details: Homo sapiens
# [17] = tested on: Tumor cell line; assay: In vitro for median growth inhibitory concentration against ovarian cancer cell lines; type: functional; details: Homo sapiens
# [18] = Full panel mean-graph midpoint (MG-MID)
# [19] = tested on: Tumor cell line; assay: In vitro for median growth inhibitory concentration against breast cancer cell lines; type: functional; details: Homo sapiens
# [20] = tested on: Panel leukemia (Carcinoma cell lines); assay: In vitro growth inhibitory concentration against leukemia tumor cell lines; type: functional; details: Homo sapiens
# [21] = tested on: Panel melanoma (Carcinoma cell lines); assay: In vitro growth inhibitory concentration against melanoma cancer cell lines; type: functional; details: Homo sapiens
# [22] = tested on: Panel renal (Carcinoma cell lines); assay: In vitro growth inhibitory concentration against renal cancer cell lines; type: functional; details: Homo sapiens
# [23] = tested on: Human alphaherpesvirus 1; assay: Minimum antiviral concentration proved to be lethal to viral population in ug/mL.; type: functional
# [24] = tested on: Human alphaherpesvirus 1; assay: Minimum antiviral concentration proved to be lethal to viral population in uM; type: functional
# [25] = tested on: Human alphaherpesvirus 1; assay: In vitro antiviral activity against Herpes Simplex-1 virus (HSV-1) expressed as percent reduction in the number of viral plaques; type: functional; design: concentration or dose not given beside the values
# [26] = tested on: Human alphaherpesvirus 1; assay: Concentration which caused 50% loss of the monolayer present around the viral plaques in ug/mL.; type: functional, organism-based
# [27] = tested on: Human alphaherpesvirus 1; assay: Concentration which caused 50% loss of the monolayer present around the viral plaques in uM; type: functional, organism-based
# [28] = tested on: Panel leukemia (Carcinoma cell lines); assay: In vitro median growth inhibitory conc. against leukemia was estimated.; type: functional; details: Homo sapiens
# [29] = species on record: Homo sapiens; assay: Selectivity ratio between the full panel MG-MID and leukemia subpanel MG-MID was determined.; type: functional
# [30] = tested on: Panel CNS (Carcinoma cell lines); assay: In vitro median growth inhibitory concentration against CNS cancer cell lines; type: functional; details: Homo sapiens
# [31] = tested on: Panel renal (Carcinoma cell lines); assay: In vitro median growth inhibitory concentration against renal cancer cell lines; type: functional; details: Homo sapiens
# [32] = In vitro median growth inhibitory concentration against colon cancer cell lines; type: functional; details: Homo sapiens
# [33] = tested on: NSCLC; assay: In vitro median growth inhibitory concentration against non-small-cell lung cancer; type: functional; details: Homo sapiens
# [34] = tested on: Panel melanoma (Carcinoma cell lines); assay: In vitro median growth inhibitory concentration against melanoma cell lines; type: functional; details: Homo sapiens
# [35] = tested on: Ovarian cancer cell line; assay: In vitro median growth inhibitory concentration against ovarian cancer cell lines; type: functional; details: Homo sapiens
# [36] = tested on: Panel prostate (Carcinoma cell lines); assay: In vitro median growth inhibitory concentration against prostate cancer cell lines; type: functional; details: Homo sapiens
# [37] = tested on: Tumor cell line; assay: Median lethal concentration was estimated; type: ADME, cell-based; details: human
# [38] = tested on: Breast cancer cell line; assay: In vitro median growth inhibitory concentration against breast cancer cell lines; type: functional; details: Homo sapiens
# [39] = tested on: NSCLC; assay: In vitro growth inhibitory concentration against non-small-cell lung cancer; type: functional; details: Homo sapiens
# [40] = In vitro effective concentration against HIV-1 cytopathic effect in T4 cells; type: functional, cell-based; details: Homo sapiens
# [41] = tested on: Human alphaherpesvirus 1; assay: concentration caused 50% loss of the monolayer present around the viral plaques in ug/mL.; type: functional, organism-based
# [42] = tested on: Human alphaherpesvirus 1; assay: 50% loss of the monolayer present around the viral plaques in uM; type: functional, organism-based
compound,measurement,setting,value
Cc1ccc(/C=C2\CN(C)CC3=C2OC(N)=C(C#N)C3c2ccc(C)cc2)cc1 (stereo not drawn),GI50,[1],18.1 µM
same,GI50,[2],16.6 µM
same,TGI,[3],83.6 µM
same,GI50,[4],37.7 µM
same,GI50,[5],5.1 µM
same,GI50,[6],26.6 µM
same,GI50,[7],29.4 µM
same,pIC50,[8],4.95
same,TGI,[9],55.7 µM
same,EC50,[10],Not Active
same,TGI,[11],43.9 µM
same,GI50,[12],3.3 µM
same,TGI,[13],70.1 µM
same,MG-MID,[14],16.9 µM
same,TGI,[15],54.1 µM
same,TGI,[16],66.2 µM
same,GI50,[17],15.5 µM
same,MG-MID,[18],51.1 µM
same,TGI,[19],30.7 µM
same,TGI,[20],17.9 µM
same,TGI,[21],59.5 µM
same,TGI,[22],54.5 µM
CN1C/C(=C\c2ccc(Cl)cc2)C(=O)/C(=C/c2ccc(Cl)cc2)C1,MAC,[23],0.02 µg/mL
same,MAC,[24],0.07 µM
same,Reduction,[25],93%
same,IC50,[26],0.2 µg/mL
same,pIC50,[27],6.16
COc1ccc(/C=C2\CN(C)CC3=C2N=C(S)NC3c2ccc(OC)cc2)cc1 (stereo not drawn),TGI,[3],81.9 µM
same,GI50,[28],2 µM
same,Ratio,[29],2.5
same,GI50,[30],30 µM
same,GI50,[31],5.9 µM
same,pIC50,[8],5.17
same,TGI,[9],76.4 µM
same,EC50,[10],Not Active
same,TGI,[11],76.3 µM
same,TGI,[13],68.1 µM
same,MG-MID,[14],56.3 µM
same,GI50,[32],4 µM
same,GI50,[33],6.5 µM
same,GI50,[34],11.7 µM
same,GI50,[35],5 µM
same,GI50,[36],9.1 µM
same,LC50,[37],91.8 µM
same,GI50,[38],11.1 µM
same,TGI,[16],30.1 µM
same,MG-MID,[18],4.9 µM
same,TGI,[20],36.3 µM
same,TGI,[21],83.1 µM
same,TGI,[39],93.6 µM
same,TGI,[22],97.2 µM
COc1ccc(/C=C2\CN(C)Cc3c2nc(O)c(C#N)c3-c2ccc(OC)cc2)cc1,TGI,[3],> 100 µM
same,GI50,[28],35 µM
same,Ratio,[29],1.5
same,GI50,[30],44.9 µM
same,GI50,[31],61.2 µM
same,pIC50,[8],3.98
same,TGI,[9],> 100 µM
same,EC50,[10],Not Active
same,TGI,[11],> 100 µM
same,TGI,[13],> 100 µM
same,GI50,[32],60.5 µM
same,GI50,[33],66.6 µM
same,GI50,[34],79.9 µM
same,GI50,[35],51.8 µM
same,GI50,[36],70.9 µM
same,GI50,[38],66.9 µM
same,TGI,[16],> 100 µM
same,MG-MID,[18],52.5 µM and 95.8 µM
same,TGI,[20],80.7 µM
same,TGI,[21],> 100 µM
same,TGI,[39],> 100 µM
same,TGI,[22],87.8 µM
CN1C/C(=C\c2cccs2)c2nc(O)c(C#N)c(-c3cccs3)c2C1,pIC50,[8],< 3.70
same,EC50,[10],Not Active
COc1ccc(/C=C2\CN(C)CC3=C2OC(N)=C(C#N)C3c2ccc(OC)cc2)cc1 (stereo not drawn),GI50,[1],40.4 µM
same,GI50,[2],41.2 µM
same,TGI,[3],> 100 µM
same,GI50,[4],60.5 µM
same,GI50,[5],9.1 µM
same,GI50,[6],70.7 µM
same,GI50,[7],79.4 µM
same,pIC50,[8],4.52
same,TGI,[9],> 100 µM
same,EC50,[10],Not Active
same,TGI,[11],97.4 µM
same,GI50,[12],36.7 µM
same,TGI,[13],93.8 µM
same,MG-MID,[14],33.3 µM
same,TGI,[15],95.5 µM
same,TGI,[16],> 100 µM
same,GI50,[17],38.1 µM
same,MG-MID,[18],85.6 µM
same,GI50,[19],48.6 µM
same,TGI,[20],49.9 µM
same,TGI,[21],93.9 µM
same,TGI,[22],96.9 µM
CN1C/C(=C\c2cccs2)C(O)/C(=C/c2cccs2)C1 (stereo not drawn),TGI,[3],> 100 µM
same,GI50,[28],32.5 µM
same,Ratio,[29],2.4
same,GI50,[30],> 100 µM
same,GI50,[31],96.2 µM
same,pIC50,[8],3.90
same,TGI,[9],> 100 µM
same,EC50,[10],Not Active
same,TGI,[11],> 100 µM
same,TGI,[13],96.8 µM
same,GI50,[32],85.8 µM
same,GI50,[33],83.9 µM
same,GI50,[34],92.5 µM
same,GI50,[35],81.4 µM
same,GI50,[36],> 100 µM
same,GI50,[38],84.3 µM
same,TGI,[16],> 100 µM
same,MG-MID,[18],77.1 µM and 97.7 µM
same,TGI,[20],78.1 µM
same,TGI,[21],> 100 µM
same,TGI,[39],> 100 µM
same,TGI,[22],> 100 µM
Cc1cn([C@H]2C[C@H](N=[N+]=[N-])[C@@H](CO)O2)c(=O)[nH]c1=O [ZIDOVUDINE],pIC50,[8],4.45
same,pEC50,[40],9.15
C[C@@]1(CO)[C@H](O)CC[C@@]2(C)[C@H]1CC[C@H]1C[C@@H]3C[C@@]12CC[C@]3(O)CO [APHIDICOLIN],MAC,[23],0.005 µg/mL
same,MAC,[24],0.02 µM
same,Reduction,[25],100%
same,IC50,[26],0.2 µg/mL
same,pIC50,[27],6.23
CN1CC2=C(N=C(S)NC2c2cccs2)/C(=C/c2cccs2)C1 (stereo not drawn),TGI,[3],> 100 µM
same,IC50,[41],0.15 µg/mL
same,pIC50,[42],6.24
same,GI50,[28],22.4 µM
same,Ratio,[29],2.4
same,GI50,[30],76.1 µM
same,GI50,[31],75 µM
same,pIC50,[8],4.47
same,MAC,[23],0.1 µg/mL
same,TGI,[9],> 100 µM
same,EC50,[10],Not Active
same,TGI,[11],> 100 µM
same,MAC,[24],0.29 µM
same,TGI,[13],98.1 µM
same,GI50,[32],70.5 µM
same,Reduction,[25],27%
same,GI50,[33],67.2 µM
same,GI50,[34],60.5 µM
same,GI50,[35],65.5 µM
same,GI50,[36],> 100 µM
same,GI50,[38],45.1 µM
same,TGI,[16],> 100 µM
same,MG-MID,[18],53.5 µM and 95.8 µM
same,TGI,[20],69.8 µM
same,TGI,[21],> 100 µM
same,TGI,[39],> 100 µM
same,TGI,[22],> 100 µM

# Source: ChEMBL document CHEMBL1133460, “Synthesis and biological evaluation of certain alpha,beta-unsaturated ketones and their corresponding fused pyridines as antiviral and cytotoxic agents” (J Med Chem, 2000)
